The structures appear in SMILES notation. Like-named read-outs stand apart in the source and are kept apart here. A value given as a limit tells only on which side of the number the result lay.

Experiment [1] deals with T1, HIV reverse transcriptase, change of Glu 89 to Glycine (Human immunodeficiency virus type 1 group M subtype B, UniProt P04585, E676G).
T1 construct: glu-89 of human immunodeficiency virus type 1 reverse transcriptase
The conditions noted are these: relative to the unmutated enzyme; cited from earlier work.

Experiment [2] addresses T2, T7 DNA polymerase (28 amino acid deletion in the exonuclease domain, complexed with thioredoxin) (Escherichia phage T7, UniProt P00581, DEL118-145).
T2 construct: made in house; host or cells: strain that produces E. coli thioredoxin (lac promoter)
In words: Inhibition of DNA synthesis on synthetic Primer-Template A, competition of dATP and ddATP (Example 9). Type of experiment: biochemical, bacteriophage T7. Particulars: in the presence of 10 µM dATP, 37°C, read-out: [ddATP] for 50% inhibition. On the procedure:
(§1) In this example the competition between a dNTP and a ddNTP is assayed for use at a single site in a synthetic primer-template. This assay differs from the others in that it limits the comparison of the use of the two substrates to a single site, avoiding the complication of sequence-specific variability in discrimination. […]
(§2) Each reaction mixture contains 25 pmoles each of primer and template. […] The mixtures are incubated at 37°C for 1 min (70°C for thermophilic DNA polymerases), and the reactions are initiated by the addition of 5 µl aliquots (0.01 to 1 unit) of the DNA polymerase being analyzed diluted in 20 mM TrisHCl, pH 7.5, 10 mM 2-mercaptoethanol and 0.05% bovine serum albumin. […] The disks are then dried under a heat lamp and counted in a scintillation counter in 5 ml of fluor (Opti-Fluor O, Packard). From the amount of radioactivity on each disk, the amount […] incorporated was determined. […]
(§3) All reactions are carried out with a constant amount of the DNA polymerase being analyzed; the amount of DNA polymerase should be sufficient to replicate 50% of the total dCMP residues in the single-stranded region of the template in the 10 min incubation in the presence of 10 µM dATP and the absence of ddATP. […]

A further experiment has as its target T3, T7 DNA polymerase Y526F (Escherichia phage T7, UniProt P00581, DEL118-145/Y526F).
T3 construct: made in house; host or cells: strain that produces E. coli thioredoxin (lac promoter)
The experiment is described as above. Particulars: in the presence of 10 µM dATP, 37°C, read-out: [ddATP] for 50% inhibition. Type of experiment: biochemical, bacteriophage T7. As to the method: as §1, §2, §3

The target of experiment [3] is T4, E. coli DNA polymerase I (large fragment, Klenow fragment), wild type (Escherichia coli, UniProt P00582).
T4 construct: The large fragment of E. coli DNA polymerase I, commonly called the Klenow fragment; made in house
The experiment is described as above. It is filed as biochemical. Particulars: in the presence of 10 µM dATP, 37°C, read-out: [ddATP] for 50% inhibition. On the procedure:
as §1, §2, §3

Experiment [4] concerns the target T5, Taq DNA polymerase (unmodified DNA polymerase from Thermus aquaticus) (Thermus aquaticus, UniProt P19821).
T5 construct: to the gene that produces the full length Taq DNA polymerase; made in house
The experiment is described as above. Type of experiment: biochemical. Particulars: in the presence of 10 µM dATP, 70°C, read-out: [ddATP] for 50% inhibition. On the procedure:
as §1, §2, §3

Another experiment deals with T7 DNA polymerase (Escherichia phage T7, UniProt P00581). The conditions noted are these: '(for ddATP)' stands at the end of the sentence, cited from earlier work.

Turning to `Nc1nc2c(ncn2[C@H]2CC[C@@H](COP(=O)(O)OP(=O)(O)OP(=O)(O)O)O2)c(=O)[nH]1` [ddGTP], the “ddGTP required to obtain same extent of inhibition” value in experiment [1] is recorded as “about 10 times more”.

With `Nc1ncnc2c1ncn2[C@H]1CC[C@@H](COP(=O)(O)OP(=O)(O)OP(=O)(O)O)O1` [ddATP], the IC50 is about 30 µM in experiment [2], over 500 µM at T7 DNA polymerase Y526F, over 500 µM in experiment [3] and over 500 µM in experiment [4]. The discrimination on T7 DNA polymerase (in the presence of manganese) is 1; on T7 DNA polymerase (magnesium) it was 3.7.

The record behind these values is patent publication EP0655506B1 (priority 1994, dated 1995).
